Assay results reported in patent EP1582213A1, “Use of adenosine for treating surgery related ischemia” (Ludwig-Maximilians-Universität München, priority 2004, dated 2005).

Key:
Format in all cases: in vivo, human
[1] = Quick test (prothrombin time) on blood samples of patients after partial liver resection
Procedure: (§1) Adenosine group: The members of this group were experiencing liver trauma during resection and additional organ ischemia during resection (Pringle-manoeuvre, duration 30 to 45 minutes). Liver protection was realised by intermitting central venous administration of adenosine (infusion duration 10 minutes, 120 to 150 µg/kg body weight/min) 20 minutes prior to resection/ischemia, and a new continuous infusion immediately after reperfusion (infusion duration 70 to 90 minutes, 120 to 150 µg/kg body weight/min).
(§2) The following tests were carried out in order to assess the post-operational organ functions: • 1. Quick test • 2. Determination of the bilirubin • 3. Lactate for monitoring the energetic situation
(§3) Any of the results obtained by applying these tests on blood samples taken from the members of the various study groups, are depicted in table 1: Table 1:
The quick test serves as a parameter for the assessment of the protein synthesis performance of the liver after the procedure.

[2] = Determination of bilirubin in blood samples of patients after partial liver resection
Procedure: as §1, §2
Any of the results obtained by applying these tests on blood samples taken from the members of the various study groups, are depicted in table 1: Table 1: […]

[3] = Lactate in serum for monitoring the energetic situation after partial liver resection
Procedure: as §1, §2, §3
Also using lactate as a parameter for cytoprotective effects confirms the significant effectiveness of adenosine administration. The lactate concentration in serum is regarded as a marker for the extent of anaerobic metabolism due to lack of oxygen caused by a cellular lack of energy. The lactate concentrations in the serum are highest post-procedure in group 2, where surgical liver trauma and ischemia/reperfusion was combined.

interleukin 6 = test: Interleukin 6 titre in blood of patients before and after liver resection (Fig. 2); conditions: post-procedure increase, first and second day after resection; adenosine group vs. control groups; three to five patients per group
Procedure: as §1
(§4) To assess protection conferred by adenosine on the anti-inflammation branch, both interleukin 6 and granulocyte functions were determined, whereby the results are presented in Figs. 2 and 3.
As depicted in Fig. 2, the level of interleukin 6 increased in any of the four groups, whereby each group consisted of three to five patients. Such increase is typically observed as a post-procedure reaction. The serum titres of the pro-inflammatory cytokine interleukin 6 can increase by three magnitudes compared to the pre-procedure titre and were highest in control group 2, where both surgical liver trauma and ischemia/reperfusion were combined.

[4] = tested on: beta 2 adhesion molecules on circulating granulocytes; test: Granulocyte function: expression of beta 2-integrins on circulating granulocytes, FACScan with FITC marked anti-CD18 antibody (Fig. 3); conditions: observed immediately after ischemia and reperfusion; adenosine administered prior and after ischemia; vs. control groups 1 and 2
Procedure: as §1, §4
The further parameter for anti-inflammation, i. e. granulocyte function, was measured as the inhibition of potential cytotoxic functions of white blood cells due to liver ischemia which was measured using the expression of beta 2-intergrins through the monoclonal anti-CD18 antibody. More particularly, the expression was determined prior to ischemia and 3, 30 and 120 minutes after reperfusion. The cells were analysed using a FACScan and a FITC marked anti-CD18 antibody. […] As indicated in Fig. 3 $ p < 0.05 vs. control group 1, # p < 0.05 vs. control group 2.

[5] = second postoperative day, same regimen, mean
[6] = first postoperative day, adenosine 120 to 150 µg/kg body weight/min prior to resection/ischemia and after reperfusion, mean

Nc1ncnc2c1ncn2[C@@H]1O[C@H](CO)[C@@H](O)[C@H]1O [Adenosine, adenosine]
value of the quick test on the first and second day after surgery (liver synthesis performance) ([1]; adenosine group compared with the control groups): higher in the adenosine group
PT(Quick)1 ([1]; first postoperative day, partial liver resection with Pringle-manoeuvre 30 to 45 minutes, adenosine central venous 120 to 150 µg/kg body weight/min, 10 minutes given 20 minutes prior to resection/ischemia and 70 to 90 minutes after reperfusion, mean): #*66%
PT(Quick)pre ([1]; preoperative baseline, Prothrombin Time expressed as Quick-values, mean of adenosine group, norm 70-100 %): 100%
PT(Quick)2 [1, 5]: 72%
bilirubin concentration ([2]; adenosine group, post-procedure vs. pre-procedure values): remained unchanged compared to pre- procedure values
bili-1 [2, 6]: #0,6 mg/dI
bili pre ([2]; preoperative baseline, bilirubin, mean of adenosine group, norm <1,0): 0,4 mg/dI
bili-2 [2, 5]: #0,5 mg/dI
Lactate-1 [3, 6]: 1,8 mmo I/I
initial increase in the lactate on the first post-procedure day ([3]; intravenous systemic administration of adenosine prior and after resection and ischemia, compared with control group 2): less pronounced
Lactat pre ([3]; preoperative baseline, lactate-concentration, mean of adenosine group, norm <2): <1,0 mmo I/I
Lactate-2 [3, 5]: 1,2 mmo I/I
IL 6 titre (interleukin 6): significantly less pronounced
activation of granulocytes circulating in the blood [4]: effectively avoided
